From article PMC3693456 (Bioorganic & medicinal chemistry letters, 2008)

Molecular target: CB1 receptor (Rattus norvegicus, UniProt P20272)
Type: binding
Conditions: rat brain membranes, PMSF; for CB1 receptor affinity (in words): qualitative statement

Sequence of CB1 receptor (P20272 whole entry): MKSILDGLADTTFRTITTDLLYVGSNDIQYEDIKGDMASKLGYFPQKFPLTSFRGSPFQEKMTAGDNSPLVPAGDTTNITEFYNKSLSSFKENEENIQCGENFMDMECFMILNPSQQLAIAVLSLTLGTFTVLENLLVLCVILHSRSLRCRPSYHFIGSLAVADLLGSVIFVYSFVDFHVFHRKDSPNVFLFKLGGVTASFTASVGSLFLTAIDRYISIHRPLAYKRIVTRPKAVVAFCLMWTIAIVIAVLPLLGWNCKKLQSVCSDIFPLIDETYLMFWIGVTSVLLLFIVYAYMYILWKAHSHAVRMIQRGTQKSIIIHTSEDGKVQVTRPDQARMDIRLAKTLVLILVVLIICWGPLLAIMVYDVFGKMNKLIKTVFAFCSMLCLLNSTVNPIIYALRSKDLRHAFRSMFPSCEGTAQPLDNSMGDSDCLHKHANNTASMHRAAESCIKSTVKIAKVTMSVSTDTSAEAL

Compound: C[C@H](CO)NC(=O)CCC/C=C\C/C=C\C/C=C\C/C=C\CCCCCc1ccccc1 [7e]
- fold lower CB1 affinity compared to 7d (relative to 7d): over 5 fold

Compound: C[C@H](CO)NC(=O)CCC/C=C\C/C=C\C/C=C\C/C=C\CCCCc1cccc2ccccc12 [7f]
- CB1 receptor affinity (in words): loss of CB1 receptor affinity

Compound: C[C@H](CO)NC(=O)CCC/C=C\C/C=C\C/C=C\C/C=C\CCCCc1ccc(Br)cc1 [7n]
- CB1 receptor affinity (in words): most potent analog

Compound: C[C@H](CO)NC(=O)CCC/C=C\C/C=C\C/C=C\C/C=C\CCCCc1ccco1 [7q]
- CB1 receptor affinity (in words): substantially weaker affinity
